Source: PubChem BioAssay (NCI)
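Test compounds were applied to cells in 96-well plates for 48 hours at 5 doses. Definition used: TGI = concentration required for complete inhibition of growth.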

What was measured:
Assay in all cases: inhibition of tumour cell growth, NCI panel, 48 h
EKVX NSCLC = tested on: EKVX NSCLC
HS 578T breast = tested on: HS 578T breast
SW-620 colon = tested on: SW-620 colon
SF-268 CNS = tested on: SF-268 CNS
NCI-H23 lung = tested on: NCI-H23 lung
NCI-H522 lung = tested on: NCI-H522 lung
UO-31 renal = tested on: UO-31 renal
A549 NSCLC = tested on: A549 NSCLC
TK-10 renal = tested on: TK-10 renal
T-47D breast = tested on: T-47D breast

`COC(=O)C1OC(O[C@H]2CC[C@]3(C)[C@H]4CC=C5[C@@H]6CC(C)(C)CC[C@]6(C(=O)OC6OCC(O)C(O)C6OC6OC(C)C(OC7OCC(O)C(O)C7O)C(OC7OCC(O)(CO)C7O)C6O)[C@H](O)C[C@@]5(C)[C@]4(C)CC[C@H]3C2(C)C)C(O)C(O)C1O` (stereo not given in full) showed a TGI (EKVX NSCLC) of 8.21 µM, a TGI (HS 578T breast) of 28.2 µM and a TGI (SW-620 colon) of 19.2 µM. The TGI (SF-268 CNS) was 24 µM, the TGI (NCI-H23 lung) was 3.56 µM and the TGI (NCI-H522 lung) was 5.78 µM. For the same molecule, the TGI (UO-31 renal) was 4.62 µM, the TGI (A549 NSCLC) was 12.6 µM and the TGI (TK-10 renal) was 29.4 µM. For the same molecule, the TGI (T-47D breast) was 15.3 µM.
For `O=C(SCc1cccc2ccccc12)c1ccc(Cl)cc1`, the TGI (EKVX NSCLC) was greater than 100 µM, the TGI (HS 578T breast) was greater than 100 µM and the TGI (SW-620 colon) was greater than 100 µM. The TGI (SF-268 CNS) was greater than 100 µM, the TGI (NCI-H23 lung) was greater than 100 µM and the TGI (NCI-H522 lung) was greater than 100 µM. The TGI (UO-31 renal) was greater than 100 µM, the TGI (A549 NSCLC) was greater than 100 µM and the TGI (TK-10 renal) was greater than 100 µM. It also gave a TGI (T-47D breast) greater than 100 µM.
`CCCCCCCCCCCCCCCCNc1ccn(C2CC(O)C(COC(c3ccccc3)(c3ccccc3)c3ccc(OC)cc3)O2)c(=O)n1` (stereo not given) was tested, and the TGI (EKVX NSCLC) was greater than 100 µM, the TGI (HS 578T breast) was greater than 100 µM and the TGI (SW-620 colon) was greater than 100 µM. It also gave a TGI (SF-268 CNS) greater than 100 µM, a TGI (NCI-H23 lung) greater than 100 µM and a TGI (NCI-H522 lung) greater than 100 µM. It also gave a TGI (UO-31 renal) of 53.8 µM, a TGI (A549 NSCLC) greater than 100 µM and a TGI (TK-10 renal) greater than 100 µM. It also gave a TGI (T-47D breast) greater than 100 µM.
For `O=C(Cn1c(C(=O)c2ccccc2)nc2ccccc21)c1ccccc1`, the TGI (EKVX NSCLC) was greater than 100 µM, the TGI (HS 578T breast) was greater than 100 µM and the TGI (SW-620 colon) was greater than 100 µM. It also gave a TGI (SF-268 CNS) greater than 100 µM, a TGI (NCI-H23 lung) greater than 100 µM and a TGI (NCI-H522 lung) greater than 100 µM. The TGI (UO-31 renal) was greater than 100 µM, the TGI (A549 NSCLC) was greater than 100 µM and the TGI (TK-10 renal) was greater than 100 µM. The TGI (T-47D breast) was greater than 100 µM.
`COc1cc2c(cc1OC)C(=O)/C(=C/c1cc(C)cc(C)c1)C2` was tested, and the TGI (EKVX NSCLC) was greater than 100 µM, the TGI (HS 578T breast) was greater than 100 µM and the TGI (SW-620 colon) was greater than 90.7 µM. The TGI (SF-268 CNS) was greater than 100 µM, the TGI (NCI-H23 lung) was greater than 68 µM and the TGI (NCI-H522 lung) was greater than 46.8 µM. It also gave a TGI (UO-31 renal) greater than 100 µM, a TGI (A549 NSCLC) of 18 µM and a TGI (TK-10 renal) greater than 100 µM. The TGI (T-47D breast) was 45.6 µM.
`COC(=O)Nc1nc2ccc(S(=O)(=O)N3CCOCC3)cc2[nH]1` was tested, and the TGI (EKVX NSCLC) was greater than 100 µM, the TGI (HS 578T breast) was greater than 100 µM and the TGI (SW-620 colon) was greater than 100 µM. For the same molecule, the TGI (SF-268 CNS) was greater than 100 µM, the TGI (NCI-H23 lung) was greater than 100 µM and the TGI (NCI-H522 lung) was greater than 100 µM. It also gave a TGI (UO-31 renal) greater than 100 µM, a TGI (A549 NSCLC) greater than 100 µM and a TGI (TK-10 renal) greater than 100 µM. It also gave a TGI (T-47D breast) greater than 100 µM.
